The text below walks through data of patent US8273774B2, “Phenoxypyridinylamide compounds” (AstraZeneca AB, priority 2008, dated 2012).

Counter-ions that a name gives are not always drawn.

recombinant Human Phosphodiesterase B2 (PDE4B2), sequence (Q07343 1-564 isoform Q07343-2): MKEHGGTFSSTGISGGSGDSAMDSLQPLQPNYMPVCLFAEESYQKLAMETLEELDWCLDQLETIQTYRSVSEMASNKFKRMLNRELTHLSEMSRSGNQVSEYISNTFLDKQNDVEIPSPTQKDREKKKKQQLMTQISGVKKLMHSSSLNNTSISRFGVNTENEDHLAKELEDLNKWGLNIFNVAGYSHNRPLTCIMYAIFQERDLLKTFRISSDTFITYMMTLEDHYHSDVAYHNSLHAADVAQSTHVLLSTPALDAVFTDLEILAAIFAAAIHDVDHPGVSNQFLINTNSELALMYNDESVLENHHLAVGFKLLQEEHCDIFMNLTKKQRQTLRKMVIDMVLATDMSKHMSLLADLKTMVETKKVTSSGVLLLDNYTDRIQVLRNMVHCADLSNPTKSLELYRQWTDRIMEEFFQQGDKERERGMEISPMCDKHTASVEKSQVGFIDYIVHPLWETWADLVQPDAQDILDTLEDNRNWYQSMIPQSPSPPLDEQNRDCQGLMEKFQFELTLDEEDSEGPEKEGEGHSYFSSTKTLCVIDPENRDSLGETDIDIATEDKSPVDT

The assay deals with recombinant Human Phosphodiesterase B2 (PDE4B2) (Homo sapiens, UniProt Q07343). Briefly: Human Phosphodiesterase B2 Radiometric Assay. The format is biochemical. Particulars: 0.1 μg/mL recombinant PDE4B2; preincubated at 30 C for 30 min; [3H]cyclic AMP 8 nM, stopped after 20 min; yttrium silicate SPA beads; read-out: PDE4B2 pIC50 (converted). The procedure, abridged:
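SPA read-out: product 5′AMP binds yttrium silicate beads (added with 18 mM ZnSO4 after 20 min) in preference to [3H]cAMP substrate, given at 8 nM final.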
In the case of `C[C@@H]1CN(CCCc2ccc(-c3cccc(Oc4ncc(F)cc4C(=O)N[C@H]4CC[C@@H](NC(=O)c5nc(CO)cs5)CC4)c3)cc2)C[C@H](C)N1` [Example 150, N-((1s,4s)-4-(2-(4′-(3-((3S,5R)-3,5-dimethylpiperazin-1-yl)propyl)biphenyl-3-yloxy)-5-fluoronicotinamido)cyclohexyl)-4-(hydroxymethyl)thiazole-2-carboxamide], the IC50 is 79.4 pM.

`Cc1cccc2nc(C(=O)N[C@H]3CC[C@@H](NC(=O)c4cc(F)cnc4Oc4cccc(-c5ccc(O)cc5CN(C)C)c4)CC3)cn12` [Example 11, N-((1s,4s)-4-(2-(2′-((dimethylamino)methyl)-4′-hydroxybiphenyl-3-yloxy)-5-fluoronicotinamido)cyclohexyl)-5-methylimidazo[1,2-a]pyridine-2-carboxamide]: the IC50 was 50.1 pM.

As to `Cc1nc(C(=O)N[C@H]2CC[C@@H](NC(=O)c3cc(F)cnc3Oc3cccc(-c4ccc(CN5CCNCC5)cc4O)c3)CC2)cs1` [Example 57, N-((1s,4s)-4-(5-fluoro-2-(2′-hydroxy-4′-(piperazin-1-ylmethyl)biphenyl-3-yloxy)nicotinamido)cyclohexyl)-2-methylthiazole-4-carboxamide], the IC50 is 63.1 pM.

For `C[C@@H]1CN(Cc2cc(-c3cccc(Oc4ncc(F)cc4C(=O)N[C@H]4CC[C@@H](NC(=O)c5cccc6[nH]cnc56)CC4)c3)ccc2O)C[C@H](C)N1` [Example 94, N-((1s,4s)-4-(2-(3′-(((3S,5R)-3,5-dimethylpiperazin-1-yl)methyl)-4′-hydroxybiphenyl-3-yloxy)-5-fluoronicotinamido)cyclohexyl)-1H-benzo[d]imidazole-4-carboxamide], the IC50 was 63.1 pM.

Turning to `C[C@@H]1CN(CCCc2ccc(-c3cccc(Oc4ncc(F)cc4C(=O)N[C@H]4CC[C@@H](NC(=O)c5cn6c(n5)CCCC6)CC4)c3)cc2)C[C@H](C)N1` [Example 104, N-((1s,4s)-4-(2-(4′-(3-((3S,5R)-3,5-dimethylpiperazin-1-yl)propyl)biphenyl-3-yloxy)-5-fluoronicotinamido)cyclohexyl)-5,6,7,8-tetrahydroimidazo[1,2-a]pyridine-2-carboxamide], the IC50 is 31.6 pM.

`C[C@@H]1CN(Cc2cc(-c3cccc(Oc4ncc(F)cc4C(=O)N[C@H]4CC[C@@H](NC(=O)c5cc6n(n5)CCCC6)CC4)c3)ccc2O)C[C@H](C)N1` [Example 101, N-((1s,4s)-4-(2-(3′-(((3R,5S)-3,5-dimethylpiperazin-1-yl)methyl)-4′-hydroxybiphenyl-3-yloxy)-5-fluoronicotinamido)cyclohexyl)-4,5,6,7-tetrahydropyrazolo[1,5-a]pyridine-2-carboxamide]: the IC50 was 63.1 pM.

In the case of `O=C(N[C@H]1CC[C@@H](NC(=O)c2cc(F)cnc2Oc2cccc(-c3ccc(CCCN4CCNCC4)cc3)c2)CC1)c1csc(CO)n1` [Example 141, N-((1s,4s)-4-(5-fluoro-2-(4′-(3-(piperazin-1-yl)propyl)biphenyl-3-yloxy)nicotinamido)cyclohexyl)-2-(hydroxymethyl)thiazole-4-carboxamide], the IC50 was 63.1 pM.

For the compound `CCCN1CCN(Cc2ccc(-c3cccc(Oc4ncc(F)cc4C(=O)N[C@H]4CC[C@@H](NC(=O)c5cc(C)n(C)n5)CC4)c3)c(CN3CCOCC3)c2)CC1` [Example 181, N-((1s,4s)-4-(1,5-Dimethyl-1H-pyrazole-3-carboxamido)cyclohexyl)-5-fluoro-2-(2′-(morpholinomethyl)-4′-((4-propylpiperazin-1-yl)methyl)biphenyl-3-yloxy)nicotinamide], the IC50 is 251 pM.

Consider `Cc1cccc2nc(C(=O)N[C@H]3CC[C@@H](NC(=O)c4cc(F)cnc4Oc4cccc(-c5ccc(O)c(CN6C[C@@H](C)N[C@@H](C)C6)c5)c4)CC3)cn12` [Example 85, N-((1s,4s)-4-(2-(3′-(((3S,5R)-3,5-dimethylpiperazin-1-yl)methyl)-4′-hydroxybiphenyl-3-yloxy)-5-fluoronicotinamido)cyclohexyl)-5-methylimidazo[1,2-a]pyridine-2-carboxamide], for which the IC50 was 63.1 pM.

For `Cc1cc(C(=O)N[C@H]2CC[C@@H](NC(=O)c3cc(F)cnc3Oc3cccc(-c4ccc(CCCN5CCNCC5)cc4)c3)CC2)nn1C` [Example 130, N-((1s,4s)-4-(1,5-dimethyl-1H-pyrazole-3-carboxamido)cyclohexyl)-5-fluoro-2-(4′-(3-(piperazin-1-yl)propyl)biphenyl-3-yloxy)nicotinamide], the IC50 was 31.6 pM.

`CC(C)c1ncc(C(=O)N[C@H]2CC[C@@H](NC(=O)c3cc(F)cnc3Oc3cccc(-c4ccc(O)cc4CN4CCOCC4)c3)CC2)s1` [Example 37, N-((1s,4s)-4-(5-fluoro-2-(4′-hydroxy-2′-(morpholinomethyl)biphenyl-3-yloxy)nicotinamido)cyclohexyl)-2-isopropylthiazole-5-carboxamide]: the IC50 is 200 pM.

As for `Cc1cccc2nc(C(=O)N[C@H]3CC[C@@H](NC(=O)c4cc(F)cnc4Oc4cccc(-c5ccc(CCCNC(C)C)cc5)c4)CC3)cn12` [Example 116, N-((1s,4s)-4-(5-fluoro-2-(4′-(3-(isopropylamino)propyl)biphenyl-3-yloxy)nicotinamido)cyclohexyl)-5-methylimidazo[1,2-a]pyridine-2-carboxamide], the IC50 was 31.6 pM.

As for `Cc1cc(C(=O)N[C@H]2CC[C@@H](NC(=O)c3cc(F)cnc3Oc3cccc(-c4cccc(CCN5C[C@@H](C)N[C@@H](C)C5)c4)c3)CC2)nn1C` [Example 103, N-((1s,4s)-4-(1,5-dimethyl-1H-pyrazole-3-carboxamido)cyclohexyl)-2-(3′-(2-((3S,5R)-3,5-dimethylpiperazin-1-yl)ethyl)biphenyl-3-yloxy)-5-fluoronicotinamide], the IC50 is 31.6 pM.

Consider `Cc1cccc(C(=O)N[C@H]2CC[C@@H](NC(=O)c3cc(F)cnc3Oc3cccc(-c4ccc(O)cc4CN4CCCOCC4)c3)CC2)n1` [Example 14, N-((1s,4s)-4-(2-(2′-((1,4-oxazepan-4-yl)methyl)-4′-hydroxybiphenyl-3-yloxy)-5-fluoronicotinamido)cyclohexyl)-6-methylpicolinamide], for which the IC50 was 20 pM.

In the case of `CN(C)CCN(C)Cc1ccc(-c2cccc(Oc3ncc(F)cc3C(=O)N[C@H]3CC[C@@H](NC(=O)c4cc5n(n4)CCCC5)CC3)c2)cc1` [Example 110, N-((1s,4s)-4-(2-(4′-(((2-(dimethylamino)ethyl)(methyl)amino)methyl)biphenyl-3-yloxy)-5-fluoronicotinamido)cyclohexyl)-4,5,6,7-tetrahydropyrazolo[1,5-a]pyridine-2-carboxamide hydrochloride], the IC50 is 200 pM.

Take `O=C(N[C@H]1CC[C@@H](NC(=O)c2cc(F)cnc2Oc2cccc(-c3ccc(CCN4CCNCC4)cc3)c2)CC1)c1cnc2ccccc2n1` [Example 186, N-((1s,4s)-4-(5-Fluoro-2-(4′-(2-(piperazin-1-yl)ethyl)biphenyl-3-yloxy)nicotinamido)cyclohexyl)quinoxaline-2-carboxamide]: the IC50 is 39.8 pM.

Regarding `Cc1cc(C)n2ncc(C(=O)N[C@H]3CC[C@@H](NC(=O)c4cc(F)cnc4Oc4cccc(-c5ccc(CN6CCN(CC(=O)NC(C)C)CC6)cc5CN5CCOCC5)c4)CC3)c2n1` [Example 178, N-((1s,4s)-4-(5-Fluoro-2-(4′-((4-(2-(isopropylamino)-2-oxoethyl)piperazin-1-yl)methyl)-2′-(morpholinomethyl)biphenyl-3-yloxy)nicotinamido)cyclohexyl)-5,7-dimethylpyrazolo[1,5-a]pyrimidine-3-carboxamide], the IC50 was 39.8 pM.

On to `Cc1cccc2nc(C(=O)N[C@H]3CC[C@@H](NC(=O)c4cc(F)cnc4Oc4cccc(-c5ccc(O)cc5CN5CCOCC5)c4)CC3)cn12` [Example 18, N-((1s,4s)-4-(5-fluoro-2-(4′-hydroxy-2′-(morpholinomethyl)biphenyl-3-yloxy)nicotinamido)cyclohexyl)-5-methylimidazo[1,2-a]pyridine-2-carboxamide], for which the IC50 is 15.8 pM.

`O=C(N[C@H]1CC[C@@H](NC(=O)c2cccc3cccnc23)CC1)c1cc(F)cnc1Oc1cccc(-c2ccc(CCCNCCCO)cc2)c1` [Example 161, N-((1s,4s)-4-(5-Fluoro-2-(4′-(3-(3-hydroxypropylamino)propyl)biphenyl-3-yloxy)nicotinamido)cyclohexyl)quinoline-8-carboxamide]: the IC50 is 12.6 pM.

Take `Cc1csc(C(=O)N[C@H]2CC[C@@H](NC(=O)c3cc(F)cnc3Oc3cccc(-c4ccc(CN5C[C@@H](C)N[C@@H](C)C5)cc4CN4CCOCC4)c3)CC2)n1` [Example 144, N-((1s,4s)-4-(2-(4′-(((3S,5R)-3,5-dimethylpiperazin-1-yl)methyl)-2′-(morpholinomethyl)biphenyl-3-yloxy)-5-fluoronicotinamido)cyclohexyl)-4-methylthiazole-2-carboxamide]: the IC50 was 31.6 pM.

On to `Cc1nc(C(=O)N[C@H]2CC[C@@H](NC(=O)c3cc(F)cnc3Oc3cccc(-c4ccc(O)cc4CN4CCCCCC4)c3)CC2)cs1` [Example 23, N-((1s,4s)-4-(2-(2′-(azepan-1-ylmethyl)-4′-hydroxybiphenyl-3-yloxy)-5-fluoronicotinamido)cyclohexyl)-2-methylthiazole-4-carboxamide], for which the IC50 was 316 pM.

`Cc1nc(C(=O)N[C@H]2CC[C@@H](NC(=O)c3cc(F)cnc3Oc3cccc(-c4ccc(CN5CCOCC5)cc4O)c3)CC2)cs1` [Example 56, N-((1s,4s)-4-(5-fluoro-2-(2′-hydroxy-4′-(morpholinomethyl)biphenyl-3-yloxy)nicotinamido)cyclohexyl)-2-methylthiazole-4-carboxamide]: the IC50 was 25.1 pM.

In the case of `O=C(N[C@H]1CC[C@@H](NC(=O)c2cc(F)cnc2Oc2cccc(-c3ccc(O)cc3CN3CCOCC3)c2)CC1)c1cc(O)c2ccccc2n1` [Example 41, N-((1s,4s)-4-(5-fluoro-2-(4′-hydroxy-2′-(morpholinomethyl)biphenyl-3-yloxy)nicotinamido)cyclohexyl)-4-hydroxyquinoline-2-carboxamide], the IC50 was 100 pM.
